Test results from patent US20130023469A1, “LEPTIN FOR USE IN INCREASING LIVER REGENERATION” (Hadasit Medical Research Services & Development Ltd., priority 2009, published 2013).
“And” between values parts separate entries of the source, which are not always exact repeats. Equal entries are not always repeated. “Also recorded” adds a separate entry of the source.

What was measured:
[1] = test system: old mice after partial hepatectomy; assay: Post-hepatectomy mortality in old mice; assay type: in vivo; conditions: female mice aged 18-24 mo, control four out of nine, P=0.014
Procedure: (§1) Animal studies and tissue preparation. All animal experiments were performed in accordance with the guidelines of the Institutional Committee for the Use of Animals for Research (IACUC). Mice aged 18 months or older (‘old’ mice) were either purchased from the National Institute of Aging and from Charles River Laboratories or maintained up to the required age in the Specific Pathogen Free (SPF) animal facility at our institution. Mice aged 10-12 months (‘aged’ mice) and 8-week-old ob/ob mice were purchased from Harlan Laboratories. The genetic background of all mice was c57 Black. Pregnancy in ob/ob mice was induced as described previously (Malik et al., 2001). Pseudopregnancy was induced by mating females with vasectomized males and observing for the presence of vaginal plugs. Progesterone levels were measured to verify pseudopregnancy induction (Shiotani et al., 1993). For rapamycin treatment, mice were injected intraperitoneally (i.p.) for 3 consecutive days with rapamycin (0.2 mg/kg body weight diluted in DMSO; LC Laboratories), starting 3 h before the hepatectomy. […] For measurement of serum prothrombin time, sodium citrate (0.105 M) was added immediately to the blood sample at a ratio of 1:10 (v/v), and values were recorded with a Beckman Coulter ACL 9000 Coagulation Analyzer according to the manufacturer's instructions. […]

hepatocytes [2] = assay: Hepatocyte cell size (E-cadherin staining) after partial hepatectomy; assay type: in vivo, mice
Procedure: as §1, with “Pseudopregnancy was induced by mating females with vasectomized males and observing for the presence of vaginal plugs.” left out, “1993).” for “1993). For rapamycin treatment, mice were injected intraperitoneally (i.p.) for 3 consecutive days with rapamycin (0.2 mg/kg body weight diluted in DMSO; LC Laboratories), starting 3 h before the hepatectomy.”
Measurement of cell size. […] The numbers of pixels in 100-300 individual hepatocytes for each mouse were scored with ImageJ (NIH) by an observer who was blinded to the treatment group. […] Mean hepatocyte volume was calculated by dividing the hepatocyte volume by the number of hepatocytes. […]

hepatocytes [3] = assay: BrdU incorporation into hepatocytes (proliferation index) after two-thirds partial hepatectomy; assay type: in vivo, mice
Procedure: Animal studies and tissue preparation. All animal experiments were performed in accordance with the guidelines of the Institutional Committee for the Use of Animals for Research (IACUC). Mice aged 18 months or older (‘old’ mice) were either purchased from the National Institute of Aging and from Charles River Laboratories or maintained up to the required age in the Specific Pathogen Free (SPF) animal facility at our institution. Mice aged 10-12 months (‘aged’ mice) and 8-week-old ob/ob mice were purchased from Harlan Laboratories. The genetic background of all mice was c57 Black. Pregnancy in ob/ob mice was induced as described previously (Malik et al., 2001). Pseudopregnancy was induced by mating females with vasectomized males and observing for the presence of vaginal plugs. Progesterone levels were measured to verify pseudopregnancy induction (Shiotani et al., 1993). For rapamycin treatment, mice were injected intraperitoneally (i.p.) for 3 consecutive days with rapamycin (0.2 mg/kg body weight diluted in DMSO; LC Laboratories), starting 3 h before the hepatectomy. For PTEN inhibition, bpV(phen) (3.3 μg/g body weight diluted in normal saline; Alexis Biochemicals) was administered i.p. on the day before hepatectomy and once a day for 3 days thereafter. BrdU (100 μl/10 g body weight; Amersham) was injected i.p. at the indicated times before the mice were killed. When indicated, BrdU (#B5002; Sigma) was added to the drinking water (0.8 mg/ml). The mice were allowed to drink ad libitum. For all experiments mice were killed by cervical dislocation. In some cases, a liver sample was removed and ‘snap-frozen’ for protein and RNA analyses. Livers were removed, weighed, photographed, and fixed in formalin overnight, and the next day the entire liver was embedded in paraffin. For measurement of serum prothrombin time, sodium citrate (0.105 M) was added immediately to the blood sample at a ratio of 1:10 (v/v), and values were recorded with a Beckman Coulter ACL 9000 Coagulation Analyzer according to the manufacturer's instructions. For ⅔ partial hepatectomy, virgin or pregnant mice (16-18 days post-coitum unless otherwise specified) were anesthetized, and the median and left lateral lobes of the liver were removed, as described (Ben Moshe et al., 2007).
Proliferation index. The percentage of BrdU-positive hepatocyte nuclei was assessed using the Kisight module of the Ariol SL 50® automated scanning microscope and image analysis system, according to the manufacturer's instructions. The same gating parameters were used for all sections. Ten fields in each liver were scored and the average percentage was calculated.
Immunohistochemistry and immunofluorescence. […]

Akt/mTORC1 pathway = assay: Western blot / phospho-4E-BP analysis of liver for Akt/mTORC1 pathway activation; assay type: in vivo, mice
Procedure: as §1, with “Pseudopregnancy was induced by mating females with vasectomized males and observing for the presence of vaginal plugs.” left out, “1993).” for “1993). For rapamycin treatment, mice were injected intraperitoneally (i.p.) for 3 consecutive days with rapamycin (0.2 mg/kg body weight diluted in DMSO; LC Laboratories), starting 3 h before the hepatectomy.”
Western blot analysis. […] Tissue lysates containing 100 μg protein were separated by 12% SDS-PAGE, and assessed by Western blot analysis by means of sequential probing with the relevant primary antibody and a relevant anti-IgG conjugated to horseradish peroxidase (Jackson ImmunoResearch).

[4] = test system: old mice after partial hepatectomy; assay: Post-hepatectomy blood coagulation (prothrombin time) and locomotor activity tests; assay type: in vivo; conditions: female mice aged 18-24 mo, compared with nontreated old mice
Procedure: as §1, with “1993).” for “1993). For rapamycin treatment, mice were injected intraperitoneally (i.p.) for 3 consecutive days with rapamycin (0.2 mg/kg body weight diluted in DMSO; LC Laboratories), starting 3 h before the hepatectomy.”
Locomotor activity. This was monitored using a photocell cage, 43.2 cm×43.2 cm (Med Associates), with 16 beam I/R arrays located along each wall of the box. […]

hepatocytes [5] = conditions: previous studies; cited from earlier work
[6] = test system: H35 cells (rat hepatoma cell line); assay: Western blot of H35 cells treated with leptin, IL6 or both; assay type: cell-based; conditions: starvation for 16 h then treated
Procedure: Western blot analyses of hepatoma rat cells, that were under starvation for 16 h and then treated with: bpV(phen), leptin, IL-6 and combination of IL-6 and Leptin.
Leptin is an adipokine of the IL6 family and its receptor signals through both the JAK/STAT and the Akt/mTORC1 pathways. Its origin is placental in humans, maternal in mice, and in late pregnancy it is increased by up to 25-fold. To test whether pregnancy-induced leptin accumulation contributes to the proliferation-to-hypertrophy switch in pregnancy we used ob/ob mice, which carry a loss-of-function mutation in leptin. Indeed, hepatocyte proliferation was not decreased in pregnant versus non-pregnant ob/ob mice (FIG. 13A). Moreover, liver regeneration in pregnant ob/ob mice was not accompanied by hepatocyte hypertrophy (FIGS. 13B-D). These findings confirmed that maternal leptin is necessary for the pregnancy-induced module switch. Furthermore, the phosphorylation state of components of the Akt/mTORC1 pathway was not increased in pregnant relative to nonpregnant mice (FIG. 13E FIG. 4e). […] Cells were harvested and protein extracts were analyzed by Western blot analysis. […] To test whether leptin is sufficient to activate the hypertrophy module, we administered leptin or vehicle to nonpregnant female mice prior to and after hepatectomy (FIG. 15A) and assessed liver growth and proliferation.

liver regeneration = assay: Prolactin administration to nonpregnant mice, liver regeneration; assay type: in vivo; conditions: data not shown
Text: In searching for the upstream signals mediating the pregnancy-induced switch, we identified four candidate hormones that are elevated in pregnancy and can activate the Akt/mTORC1 pathway: growth hormone (and its variants), prolactin, leptin and estrogen.

[7] = young nonpregnant mice treated with bpV(phen), after partial hepatectomy

O.O.O.OO.OO.[K+].[OH-].[V].c1cnc2c(c1)ccc1cccnc12 [bpV(phen), bisperoxovanadium 1,10-phenanthroline]
mortality rate [1]: zero out of nine | growth in the mean cross-sectional area (hepatocytes [2]; [7]): 115% | proliferation index (hepatocytes [3]; [7]): low proliferation index | BrdU-labeled hepatocytes (hepatocytes [3]; young nonpregnant mice, 4 d after partial hepatectomy, continuous BrdU, bpV(phen) 3.3 μg/g i.p., untreated 92±1%): 8±2% | activation of Akt/mTORC1 pathway (phosphorylated Akt and 4E-BP1, Western blot) (Akt/mTORC1 pathway; liver extracts of young mice treated with bpV(phen)): activates the Akt/mTORC1 pathway | recovery from partial hepatectomy (blood coagulation and locomotor activity) [4]: significant improvement in recovery from partial hepatectomy

CO[C@H]1C[C@@H]2CC[C@@H](C)[C@@](O)(O2)C(=O)C(=O)N2CCCC[C@H]2C(=O)O[C@H]([C@H](C)C[C@@H]2CC[C@@H](O)[C@H](OC)C2)CC(=O)[C@H](C)/C=C(\C)[C@@H](O)[C@@H](OC)C(=O)[C@H](C)C[C@H](C)/C=C/C=C/C=C/1C [rapamycin]
cell size (hepatocytes [2]; aged pregnant mice, 2 d after partial hepatectomy, rapamycin-treated, vehicle 527±2): 422±1 μ^2 | hepatocyte proliferation rate (BrdU-labeled) (hepatocytes [3]; aged pregnant mice, 2 d after partial hepatectomy, rapamycin 0.2 mg/kg i.p. for 3 days, vehicle 2%±1%): 25±8% and 25%±8%

Estrogen
hepatocyte proliferation after partial hepatectomy (hepatocytes [5]): increase hepatocyte proliferation after partial hepatectomy

growth hormone: hormone elevated in pregnancy; not tested by the applicant, literature result only
hepatocyte proliferation after partial hepatectomy (hepatocytes [5]): increase hepatocyte proliferation after partial hepatectomy

B1: leptin: adipokine of the IL6 family; mouse leptin was injected in mice (protein, UniProt P41160 22-167, looked up)
Leptin: VPIQKVQDDTKTLIKTIVTRINDISHTQSVSAKQRVTGLDFIPGLHPILSLSKMDQTLAVYQQVLTSLPSQNVLQIANDLENLRDLLHLLAFSKSCSLPQTSGLQKPESLDGVLEASLYSTEVVALSRLQGSLQDILQQLDVSPEC
hepatocyte proliferation after partial hepatectomy (hepatocytes [5]): attenuates hepatocyte proliferation after partial hepatectomy | hepatocyte proliferation (BrdU-positive cells) (hepatocytes [3]; nonpregnant female mice, leptin S.C. 1 mg/kg from two days before to two days after partial hepatectomy): marked reduction in hepatocyte proliferation | Akt pathway activation (phosphorylation of 4E-BP) (Akt/mTORC1 pathway; nonpregnant female mice, leptin S.C. 1 mg/kg, two days after partial hepatectomy): activating the Akt pathway | Akt pathway activation (phosphorylation of S6 kinase and 4E-BP) [6]: activates the Akt pathway; also recorded: phosphorylation of both S6 kinase and 4E-BP

B2: prolactin: hormone elevated in pregnancy that can activate the Akt/mTORC1 pathway (protein, UniProt P01236 29-227, looked up)
Prolactin: LPICPGGAARCQVTLRDLFDRAVVLSHYIHNLSSEMFSEFDKRYTHGRGFITKAINSCHTSSLATPEDKEQAQQMNQKDFLSLIVSILRSWNEPLYHLVTEVRGMQEAPEAILSKAVEIEEQTKRLLEGMELIVSQVHPETKENEIYPVWSGLPSLQMADEESRLSAYYNLLHCLRRDSHKIDNYLKLLKCRIIHNNNC
effect on liver regeneration (liver regeneration): no effect on liver regeneration
